Laboratory results published in US7297796B2, “Sulfamoyl benzamide derivatives and methods of their use” (Adolor Corporation, priority 2004, dated 2007).

Experiments:
CB2 receptor [1] = molecular target: T1, CB2 receptor (Homo sapiens, UniProt P34972); test: hCB2 receptor binding, [3H]CP55940 displacement; details: human cloned CB2 receptor
T1 construct: expressed in transfected cells; membranes
Description: (§1) Ki values in receptor binding experiments were determined by Cheng-Prusoff correction of IC50 values derived from automated nonlinear regression analysis of sigmoidal titration curves using a three-parameter modification (slope set to 1.0) of the four-parameter equation described in Cheng, Y.-C. and W. H. Prusoff, Biochem. Pharmacol. 22:3099-3108 (1973) and DeLean et al., Am. J. Physiol. 235:E97-E102 (1978).
(§2) Chinese hamster ovary cells (CHO-K1), stably transfected with either hCB1 or hCB2, were washed two times with cold PBS, scraped from 500 cm^2 tissue culture plates, and pelleted by centrifugation at 1000×g for 10 min. The supernatant was discarded and the pellet was resuspended in Tris assay buffer (50 mM Tris HCl, pH 7.8, containing 1.0 mM EGTA, 5.0 mM MgCl2, […], and 0.5 mg/mL aprotinin), homogenized with a Polytron homogenizer (Brinkmann) at a setting of 1 for 20 sec and centrifuged at 38,000×g for 20 min at 4° C. The pellet was resuspended in Tris assay buffer and aliquots of 1 mg protein/mL were stored at −80° C. for further use.
(§3) Binding assays were performed by incubating 0.2-0.6 nM (34,000-100,000 dpm) [^3H]CP55940 with membranes prepared from cells expressing cloned human CB1 or CB2 receptors in buffer A (50 mM Tris HCl, pH 7.0, 5.0 mM MgCl2, 1.0 mM EGTA and 1.0 mg/mL fatty acid free bovine serum albumin). After incubation for 60 min at room temperature for the hCB2 binding assay or 120 min at 30° C. for the hCB1 assay, the assays were filtered through GF/C filters that had been pre-soaked overnight in 0.5% (w/v) PEI and 0.1% BSA in water. The filters were rinsed 6 times with one mL of cold wash buffer (50 mM Tris HCl, pH 7.0, 5.0 mM MgCl2, 1.0 mM EGTA and 0.75 mg/mL fatty acid free bovine serum albumin), 30 μL of MicroScint 20 was added to each filter and the radioactivity on the filters determined by scintillation spectroscopy. Nonspecific binding was determined in the presence of 10 μM WIN55212-2.

CB1 receptor [2] = molecular target: T2, CB1 receptor (Homo sapiens, UniProt P21554); test: hCB1 receptor binding, [3H]CP55940 displacement; details: human cloned CB1 receptor
T2 construct: expressed in transfected cells; membranes
T2 sequence (P21554 whole entry): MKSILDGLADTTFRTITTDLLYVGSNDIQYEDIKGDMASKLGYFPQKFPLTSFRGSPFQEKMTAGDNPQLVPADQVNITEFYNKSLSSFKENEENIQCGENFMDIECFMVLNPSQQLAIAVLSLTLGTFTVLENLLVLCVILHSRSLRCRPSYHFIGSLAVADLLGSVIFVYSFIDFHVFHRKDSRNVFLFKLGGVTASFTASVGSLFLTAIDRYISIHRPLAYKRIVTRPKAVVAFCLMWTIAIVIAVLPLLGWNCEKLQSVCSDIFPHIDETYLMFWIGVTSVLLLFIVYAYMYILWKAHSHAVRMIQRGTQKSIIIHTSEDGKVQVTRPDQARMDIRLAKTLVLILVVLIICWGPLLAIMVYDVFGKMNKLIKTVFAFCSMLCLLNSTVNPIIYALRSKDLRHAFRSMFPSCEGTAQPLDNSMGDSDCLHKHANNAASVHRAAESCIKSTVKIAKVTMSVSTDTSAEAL
Description: as §1, §2, §3

CB2 receptor [3] = molecular target: T1, CB2 receptor; test: hCB2-mediated [35S]GTPγS binding; format: biochemical; details: for EC50: agonist, read-out: in vitro CB2 receptor agonist potency EC50
Description: (§4) EC50 values in functional assays were also derived from automated nonlinear regression analysis of sigmoidal titration curves using the three-parameter modification of the four-parameter equation.
as §2
hCB2-Mediated [^35S]GTPγS binding was measured in the same way except the assay mixture contained […] and the incubation time was 6 hours. [^35S]GTPγS binding in rat cerebellar homogenate was determined in a mixture containing 40-60 pM [^35S]GTPγS, homogenate assay buffer (50 mM Tris-HCl, 3 mM MgCl2, 0.2 mM EGTA), 100 mM NaCl, 10 mM MgCl2, […], 20 μg homogenate protein/well and agonist in a total volume of 250 μL in 96 well Basic Flashplates (Perkin Elmer). After incubation at 30° C. for 2 hours, the plates were centrifuged at 800×g at 4° C. for 5 min and the radioactivity bound to the membrane was determined by scintillation spectrometry using the Topcount (Perkin Elmer).

CB1 receptor [4] = molecular target: T2, CB1 receptor; test: hCB1-mediated stimulation of [35S]GTPγS binding; format: biochemical; details: agonist; read-out: in vitro CB1 receptor agonist potency EC50
Description: as §4
as §2, with “The pellet was resuspended in Tris assay buffer and aliquots of 1 mg protein/mL were stored at −80° C. for further use.” left out
hCB1-Mediated stimulation of [^35S]GTPγS binding was measured in a mixture containing 100-150 pM [^35S]GTPγS, 150 mM NaCl, 45 mM MgCl2, […], 0.4 mM DTT, 1 mM EGTA, 1 mg/mL fatty acid free BSA, 25 μg of membrane protein and agonist in a total volume of 250 μL of buffer A in 96 well Basic Flashplates (Perkin Elmer). After incubation at room temperature for 2 hours the plates were centrifuged at 800×g at 4° C. for 5 min and the radioactivity bound to the membranes was determined by scintillation spectrometry using the Topcount (Perkin Elmer).

[5] = tested on: L5 SNL-induced tactile allodynia; test: Neuropathic pain assay: L5 SNL-induced tactile allodynia (von Frey); format: in vivo, rat; details: L5 SNL rats, n = 7-8/group
Description: Male Sprague-Dawley rats (120-250 g, Harlan Laboratories, Columbus, Ohio) were housed in pairs and allowed free access to food and water throughout the study. Room temperature and humidity were maintained at 21° C. and 70%, respectively. Nerve injury was produced with tight ligation of the left L5 spinal nerve (Kim, S. H., and J. M. Chung, Pain, 50, 355-363 (1992); LaBuda, C. J. and Fuchs, P. N., Exp Neurol., 163, 490-494(2000); LaBuda, C. J. and Fuchs, P. N., Neurosci Letters, 290, 137-140(2000); LaBuda, C. J., Donahue, R., Fuchs, P. N., Pain, 94, 59-63, (2001)). Briefly, animals were placed in the prone position to access the left L4-L6 spinal nerves. Under magnification, approximately one third of the L6 transverse process was removed. The L5 spinal nerve was identified and carefully dissected free from the adjacent L4 spinal nerve and then tightly ligated using 6-0 silk suture. The wound was treated with an antiseptic solution, the muscle layer was sutured, and the wound was closed with wound clips. Sham-operated surgical controls were prepared in the same manner, but the L5 spinal nerve was not […]. All housing conditions and experimental procedures were performed in accordance with the ethical guidelines of the IASP and the Adolor Corporation Animal Care and Use Committee.
Seven to ten animals per group were used for all behavioral assays. After a 7-10 day post-surgical recovery, animals were tested for baseline sensitivity to tactile stimulation of both hindpaws. Allodynic animals were defined as animals having a threshold of less than 7.5 grams of pressure applied to the injured hindpaw. Tactile sensitivity was evaluated using von Frey monofilaments before and after treatment. […] Thirty minutes after treatment, tactile sensitivity was evaluated. Five to seven days later, animals were tested using a different compound. Each animal was tested three times with different compounds. All behavioral testing was performed between 9:00 AM and 5:00 PM in a well-illuminated room with white background noise.
Animals were placed in a Plexiglas chamber (20 cm×10.5 cm×40.5 cm) and habituated for 15 minutes. The chamber was positioned on top of a mesh screen so that von Frey monofilaments could be presented to the plantar surfaces of both hindpaws. Measurements of tactile sensitivity for each hindpaw were obtained using the up/down method (Dixon, W. J., Annu Rev Pharmacol Toxicol 20, 441-462, 1980) with seven von Frey monofilaments (0.04, 0.07, 0.16, 0.4, 1, 6, and 15 grams). Each trial started with a von Frey force of 0.4 g delivered to the right hindpaw and then the left hindpaw for approximately 1-2 sec each. If there was no withdrawal response, the next higher force was delivered. If there was a response, the next lower force was delivered. This procedure was performed until no response was made at the highest force (15 grams) or until four stimuli were administered following the initial response. The 50% paw withdrawal threshold for each paw was calculated using the following formula: [Xth]log=[vFr]log+ky where [vFr] is the force of the last von Frey filament used, k=0.2249 which is the average interval (in log units) between the von Frey monofilaments, and y is a value that depends upon the pattern of withdrawal responses (Dixon, Id.). […] Testing for tactile sensitivity was performed twice and the mean 50% withdrawal value assigned as the tactile sensitivity for the right and left paws for each animal.
Tactile sensitivity for both hindpaws before and after treatments were analyzed using one-way analysis of variance (ANOVA) followed by post-hoc comparisons (protected t-test) for group differences. An alpha level of 0.05 was used for all analyses.

T1 sequence (P34972 whole entry): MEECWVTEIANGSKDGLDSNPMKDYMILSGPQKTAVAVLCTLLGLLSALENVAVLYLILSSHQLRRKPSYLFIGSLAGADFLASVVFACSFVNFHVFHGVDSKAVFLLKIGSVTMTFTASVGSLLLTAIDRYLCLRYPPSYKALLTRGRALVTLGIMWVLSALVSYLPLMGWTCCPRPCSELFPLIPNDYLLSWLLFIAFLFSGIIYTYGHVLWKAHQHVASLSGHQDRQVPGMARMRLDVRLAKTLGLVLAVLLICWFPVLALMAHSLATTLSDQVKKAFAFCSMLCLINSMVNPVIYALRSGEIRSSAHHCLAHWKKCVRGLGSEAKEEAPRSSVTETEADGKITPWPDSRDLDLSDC

Row | Compound | Ki (CB2 receptor [1]) | Ki (CB1 receptor [2]) | EC50 (CB1 receptor [4]) | EC50 (CB2 receptor [3]) | Anti-Allodynia [%] ([5]; 3 mg/kg) | other results
1 | CN(Cc1ccccc1)S(=O)(=O)c1cc(C(=O)NC2C(C)(C)[C@@H]3CC[C@]2(C)C3)ccc1Br (stereo in doubt) [Compound 23, 3-(Benzyl-methyl-sulfamoyl)-4-bromo-N-(1,3,3-tri-methyl-bicyclo[2.2.1]hept-2-yl)-benzamide] | 10.3 nM | > 1000 nM |  |  |  | IC50 (CB2 receptor [3]; antagonist, read-out: in vitro CB2 receptor antagonist potency IC50): 13.7 nM
2 | CC1(C)[C@@H]2CC[C@@](C)(C2)[C@@H]1NC(=O)c1ccc(Br)c(S(=O)(=O)N2CCCCC2)c1 [Compound 17, 4-Bromo-3-(piperidine-1-sul-fonyl)-N-(1,3,3-tri-methylbicyclo[2.2.1]hept-2-yl)-benzamide] | 13.1 nM | 93 nM | 326 nM | 18.2 nM |  | 
3 | Cc1ccc(C(=O)N[C@H]2C(C)(C)[C@@H]3CC[C@@]2(C)C3)cc1S(=O)(=O)N1CCOCC1 [Compound 26, 4-Methyl-3-(morpholine-4-sul-fonyl)-N,S-(1,3,3-tri-methyl-bicyclo[2.2.1]-hept-2-yl)-benzamide] | 3.7 nM | 121 nM | 2000 nM | 7.8 nM | 61.7 ± 13.6 % | Anti-Allodynia [%] ([5]; 1 mg/kg): 53.5 ± 14.2%; Anti-Allodynia [%] ([5]; 6 mg/kg): 61.1 ± 12.6 %; Anti-Allodynia [%] ([5]; 10 mg/kg): 44.0 ± 16.2%
4 | Cc1c(C(=O)c2cccc3ccccc23)c2cccc3c2n1[C@H](CN1CCOCC1)CO3 [WIN, WIN 55,212-2, reference compound] |  |  |  |  |  | Anti-Allodynia [%] ([5]; 2.5 mg/kg): 75.2 ± 13.8%
5 | CN1CCCCC1Cn1cc(C(=O)c2cc([N+](=O)[O-])ccc2I)c2ccccc21 (centres unmarked) [AM1241, reference compound] |  |  |  |  | 27.5 ± 10.1% | 
